Values of other authors in US5798310A, “Glyphosate compositions and their use” (Monsanto Europe S.A., priority 1995, dated 1998).

Conditions: literature

SMILES	effect on herbicidal activity of glyphosate
N#CS [ammonium thiocyanate]	further enhance the herbicidal activity
N.N.O=S(=O)(O)O [ammonium sulphate]	further enhance the herbicidal activity
